Experimental data reported in patent US7718128B2, “Application using non-covalent bond between a cucurbituril derivative and a ligand” (Postech Foundation, priority 2005, dated 2010).

Test system: KB cells (oral carcinoma cells)
Test: measurement of degree of cell death by flow cytometry (annexin V-ferrocene derivative / FITC-cucurbituril derivative)
Assay type: cell-based
Conditions: 0.5 μM (0.3 μg/mL) doxorubicin, 3 days, versus sample not treated
Description: After a ferrocene derivative bound to annexin V, which is known as a protein that can selectively bind to surfaces of dead cells, was treated on cells induced to die using an anti-cancer drug, the cells were treated with an FITC-bound cucurbituril derivative, and the degree of cell death was measured through flow cytometry.
2 mL of […] culture solution (containing 10% FCS) and about 10^6 KB cells (oral carcinoma cells) (obtained from the Korean Cell Line Bank (KCLB)) were cultured in two 6-well cell culture dishes at 37° C. in a 5% CO2 condition for 48 hours.
Next, 2 mL of the RPMT-1640 culture solution (containing 10% FCS) in one of the 6-well cell culture dishes was replaced by the same, fresh culture solution, and 2 mL of the RPMT-1640 culture solution in the other 6-well cell culture dish was replaced by 0.5 μM (0.3 μg/mL) of doxorubicin, and the two culture dishes were incubated at 37° C. in a 5% CO2 condition for 3 days.
The culture solution in the two cell culture dishes incubated in (1) was removed. […]
Next, the degree of cell depth in each of the samples was measured through flow cytometry (FACSCalibur, Becton Dickinson Corp., Ex=488 nm, Em=530 nm (for FITC detection).

Q: `COc1cccc2c1C(=O)c1c(O)c3c(c(O)c1C2=O)C[C@@](O)(C(=O)CO)C[C@@H]3O[C@H]1C[C@H](N)[C@H](O)[C@H](C)O1` [doxorubicin] was tested. Which “degree of cell death (FITC signal, flow cytometry)” value did it give?
A: Its value is “most cells in the doxorubicin-treated sample died”.
